Active and inactive are the calls of the source. The rule behind the calls is not given here. Peptide text beside a SMILES is read from it. * marks the point of attachment. Boc = CC(C)(C)OC(=O)*
Experiments:
[1] = tested on: Rattus norvegicus; experiment: Effective dose required to inhibit gastrin-induced acid secretion in the in situ perfused rat stomach (anesthetized rat); format: functional
[2] = tested on: Rattus norvegicus; experiment: Agonistic activity against gastrin induced acid secretion in the anesthetized rats at a dose of 3 mg/kg;*=1/4 of the agonistic activity; format: functional, organism-based; set-up: dose 3 mg/kg; conditions: filed as partial agonist
[3] = tested on: Rattus norvegicus; experiment: Agonistic activity against gastrin induced acid secretion in the anesthetized rats; No agonist activity at doses as high as 3 mg/kg; format: functional, organism-based; set-up: dose 3 mg/kg
[4] = tested on: Rattus norvegicus; experiment: Agonistic activity against gastrin induced acid secretion in the anesthetized rats at a dose of 3 mg/kg; **** indicate full activity of tetragastrin; format: functional, organism-based; set-up: dose 3 mg/kg; conditions: filed as agonist

SMILES	ED50 [1] [µmol/kg]	Agonist activity [2]	Agonist activity [3]	Agonist activity [4]
CCCC[C@@H](NC(=O)[C@H](CC(=O)O)NC(=O)NCc1ccccc1)NC(=O)[C@@H](Cc1c[nH]c2ccccc12)NC(=O)OC(C)(C)C	1.1	Partial agonist		
CCCN(CCC)C(=O)C(CCC(=O)O)NC(=O)c1ccccc1 (configuration not stated) [PROGLUMIDE]	350		inactive	
CCCC[C@@H](NC(=O)[C@H](CC(=O)O)NC(=O)CCc1ccccc1)NC(=O)[C@@H](Cc1c[nH]c2ccccc12)NC(=O)OC(C)(C)C	2.5	Partial agonist		
CC(C)C[C@H](NC(=O)[C@H](Cc1c[nH]c2ccccc12)NC(=O)OC(C)(C)C)C(=O)N[C@H](CC(=O)O)NC(=O)NCc1ccccc1	0.9		inactive	
CC(C)C[C@H](NC(=O)[C@@H](Cc1c[nH]c2ccccc12)NC(=O)OC(C)(C)C)C(=O)N[C@H](CC(=O)O)NC(=O)C(Cc1ccccc1)C(N)=O (some centres not stated)	0.3	Partial agonist		
CC(C)C[C@@H](NC(=O)[C@H](CC(=O)O)NC(=O)C(Cc1ccccc1)C(N)=O)NC(=O)[C@@H](Cc1c[nH]c2ccccc12)NC(=O)OC(C)(C)C (some centres not stated)	0.15	Partial agonist		
CCCCOC(=O)CCNC(=O)[C@H](Cc1c[nH]c2ccccc12)NC(=O)[C@@H](CCCC)NC(=O)[C@H](CC(=O)O)NC(=O)NCc1ccccc1			inactive	
CC(C)C[C@H](NC(=O)[C@@H](Cc1c[nH]c2ccccc12)NC(=O)OC(C)(C)C)C(=O)N[C@H](CC(=O)O)NC(=O)CCc1ccccc1	0.15		inactive	
CCCCOC(=O)CCNC(=O)[C@H](Cc1c[nH]c2ccccc12)NC(=O)[C@@H](CCCC)NC(=O)[C@H](CC(=O)O)NC(=O)CCc1ccccc1	10.4			
CC(C)C[C@H](NC(=O)[C@H](Cc1c[nH]c2ccccc12)NC(=O)OC(C)(C)C)C(=O)N[C@@H](CC(=O)O)C(=O)N[C@@H](Cc1ccccc1)C(N)=O (Boc-WLDF-NH2)				Agonist

Reference: ChEMBL document CHEMBL1123729, “Synthesis and biological activity of partially modified retro-inverso pseudopeptide derivatives of the C-terminal tetrapeptide of gastrin” (J Med Chem, 1987)
